For one experiment, the target named is T1, BRG-1 (Homo sapiens, UniProt P51532).
T1 construct: made in house; host or cells: High Five insect cells
Nature of the experiment: ATPase catalytic activity of BRG-1, ADP-Glo in vitro biochemical assay. The settings on record: ATPase catalytic activity, ADP-Glo; 30 nM BRG-1, 400 μM ATP; read-out: BRG1 IC50. The procedure, abridged:
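Biochemical ADP-Glo assay, BRG-1. Post-reaction: ATP depletion reagent, 40 min RT; ADP→ATP conversion/detection reagent, 60 min RT; luminescence read on plate luminometer.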
Background: ADP-Glo turns the ADP formed in a reaction into a luminescent signal.

A further experiment has as its target T2, BRM (Homo sapiens, UniProt P51531).
T2 construct: made in house; host or cells: High Five insect cells
The experiment is described as follows: ATPase catalytic activity of BRM, ADP-Glo in vitro biochemical assay. The settings on record: for IC50: ATPase catalytic activity, ADP-Glo, 30 nM BRM, 400 μM ATP; for Ratio*: ratio of BRG1 IC50 to BRM IC50. In short, it runs like this: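 Recombinant BRM (30 nM) hydrolysed 400 μM ATP with 20 nM salmon sperm DNA in pH 8 Tris buffer containing 20 mM MgCl2, 50 mM NaCl, 0.1% Tween-20 and 1 mM DTT, 1 h at room temperature. ADP formed was quantified by ADP-Glo luminescence.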

The structures appear in SMILES notation.

The results in this text go back to patent US20230416248A1, “COMPOUNDS AND USES THEREOF” (Foghorn Therapeutics Inc., priority 2020, published 2023).

For orientation: IC50 means the point on the concentration scale where inhibition reaches its midpoint.

T1 sequence (P51532 whole entry): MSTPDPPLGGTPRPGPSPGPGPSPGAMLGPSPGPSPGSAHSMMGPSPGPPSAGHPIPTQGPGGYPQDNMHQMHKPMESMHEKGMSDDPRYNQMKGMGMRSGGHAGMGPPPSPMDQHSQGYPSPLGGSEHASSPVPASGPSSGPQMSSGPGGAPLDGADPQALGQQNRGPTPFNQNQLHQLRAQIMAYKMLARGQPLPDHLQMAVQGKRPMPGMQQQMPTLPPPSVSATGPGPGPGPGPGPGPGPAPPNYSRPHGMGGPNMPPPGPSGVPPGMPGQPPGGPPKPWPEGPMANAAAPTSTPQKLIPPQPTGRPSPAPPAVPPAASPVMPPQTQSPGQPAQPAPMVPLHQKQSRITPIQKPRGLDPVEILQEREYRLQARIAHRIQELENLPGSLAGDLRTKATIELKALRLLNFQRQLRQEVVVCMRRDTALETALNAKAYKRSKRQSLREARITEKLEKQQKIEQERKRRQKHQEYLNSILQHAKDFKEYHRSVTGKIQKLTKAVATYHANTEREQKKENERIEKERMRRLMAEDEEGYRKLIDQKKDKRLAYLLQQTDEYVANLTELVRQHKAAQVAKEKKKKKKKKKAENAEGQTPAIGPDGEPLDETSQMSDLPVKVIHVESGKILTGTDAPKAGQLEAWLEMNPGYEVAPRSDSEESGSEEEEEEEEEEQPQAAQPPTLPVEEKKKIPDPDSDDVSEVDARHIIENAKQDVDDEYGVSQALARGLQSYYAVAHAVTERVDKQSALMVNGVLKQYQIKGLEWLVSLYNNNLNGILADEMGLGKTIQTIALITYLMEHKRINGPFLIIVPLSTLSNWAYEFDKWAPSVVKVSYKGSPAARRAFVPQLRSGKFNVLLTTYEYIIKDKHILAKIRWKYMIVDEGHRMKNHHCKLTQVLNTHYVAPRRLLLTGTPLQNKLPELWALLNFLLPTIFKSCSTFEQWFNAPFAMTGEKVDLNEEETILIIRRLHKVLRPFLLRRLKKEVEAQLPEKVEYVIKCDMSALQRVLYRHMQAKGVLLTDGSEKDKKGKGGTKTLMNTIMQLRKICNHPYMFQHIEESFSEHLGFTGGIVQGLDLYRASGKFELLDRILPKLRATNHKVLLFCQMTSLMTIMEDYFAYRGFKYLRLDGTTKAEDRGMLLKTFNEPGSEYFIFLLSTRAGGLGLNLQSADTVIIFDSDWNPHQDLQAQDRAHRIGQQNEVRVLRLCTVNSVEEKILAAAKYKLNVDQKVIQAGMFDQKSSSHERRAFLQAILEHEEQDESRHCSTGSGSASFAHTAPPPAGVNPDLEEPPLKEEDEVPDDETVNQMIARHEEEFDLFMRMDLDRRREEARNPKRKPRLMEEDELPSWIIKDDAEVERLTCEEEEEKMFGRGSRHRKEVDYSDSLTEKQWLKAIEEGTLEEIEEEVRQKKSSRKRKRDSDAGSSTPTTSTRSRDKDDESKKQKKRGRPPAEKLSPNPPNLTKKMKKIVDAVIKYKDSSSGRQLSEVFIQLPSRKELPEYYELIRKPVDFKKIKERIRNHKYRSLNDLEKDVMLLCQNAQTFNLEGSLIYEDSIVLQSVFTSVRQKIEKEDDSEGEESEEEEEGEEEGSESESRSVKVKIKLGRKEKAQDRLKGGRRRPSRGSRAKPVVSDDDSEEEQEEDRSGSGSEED
T2 sequence (P51531 whole entry): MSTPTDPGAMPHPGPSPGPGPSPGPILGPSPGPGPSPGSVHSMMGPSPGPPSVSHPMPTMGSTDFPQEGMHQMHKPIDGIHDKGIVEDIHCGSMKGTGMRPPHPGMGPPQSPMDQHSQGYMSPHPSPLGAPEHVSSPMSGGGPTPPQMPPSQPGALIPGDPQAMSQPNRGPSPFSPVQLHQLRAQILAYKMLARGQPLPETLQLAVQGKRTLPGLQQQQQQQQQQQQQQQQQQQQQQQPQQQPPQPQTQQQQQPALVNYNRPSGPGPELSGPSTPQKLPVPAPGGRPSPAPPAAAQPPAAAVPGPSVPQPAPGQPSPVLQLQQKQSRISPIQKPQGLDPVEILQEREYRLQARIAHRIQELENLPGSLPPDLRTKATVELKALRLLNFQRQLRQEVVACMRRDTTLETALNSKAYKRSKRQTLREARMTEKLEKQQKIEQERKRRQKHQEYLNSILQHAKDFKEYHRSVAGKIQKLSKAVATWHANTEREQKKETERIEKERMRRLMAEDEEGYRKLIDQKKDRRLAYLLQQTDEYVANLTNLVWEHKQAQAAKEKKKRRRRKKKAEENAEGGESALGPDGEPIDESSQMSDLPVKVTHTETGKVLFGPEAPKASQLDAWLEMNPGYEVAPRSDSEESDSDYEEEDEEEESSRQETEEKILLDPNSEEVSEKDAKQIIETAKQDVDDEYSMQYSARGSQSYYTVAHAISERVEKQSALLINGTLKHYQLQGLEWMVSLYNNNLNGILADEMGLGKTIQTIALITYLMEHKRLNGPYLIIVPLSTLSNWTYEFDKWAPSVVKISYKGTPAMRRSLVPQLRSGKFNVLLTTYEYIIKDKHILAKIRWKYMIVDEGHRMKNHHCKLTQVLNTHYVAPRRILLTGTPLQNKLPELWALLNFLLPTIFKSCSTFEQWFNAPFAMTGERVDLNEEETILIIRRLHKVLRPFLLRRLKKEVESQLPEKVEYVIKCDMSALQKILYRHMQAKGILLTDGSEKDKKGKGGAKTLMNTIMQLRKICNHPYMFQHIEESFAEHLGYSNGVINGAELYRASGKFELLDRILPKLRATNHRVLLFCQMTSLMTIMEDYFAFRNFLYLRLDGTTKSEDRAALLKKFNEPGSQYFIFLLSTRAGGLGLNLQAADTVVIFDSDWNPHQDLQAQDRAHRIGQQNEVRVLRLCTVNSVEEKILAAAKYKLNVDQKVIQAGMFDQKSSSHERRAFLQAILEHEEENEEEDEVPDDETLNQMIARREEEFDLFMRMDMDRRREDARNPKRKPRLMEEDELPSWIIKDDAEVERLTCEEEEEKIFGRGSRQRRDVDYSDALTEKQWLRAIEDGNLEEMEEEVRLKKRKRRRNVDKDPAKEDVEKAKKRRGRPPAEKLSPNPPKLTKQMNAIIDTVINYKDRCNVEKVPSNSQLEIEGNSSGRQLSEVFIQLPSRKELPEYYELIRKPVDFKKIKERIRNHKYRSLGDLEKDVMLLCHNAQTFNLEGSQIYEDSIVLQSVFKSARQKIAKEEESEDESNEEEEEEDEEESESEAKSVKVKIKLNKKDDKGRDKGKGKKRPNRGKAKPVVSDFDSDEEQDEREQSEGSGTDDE

As to `Cc1cnc2c(n1)CCCN2c1ccc2cnc(CNC(=O)c3ccc4c(c3)S(=O)(=O)CCOC4)cc2n1` [Compound 440], on BRG-1, the 50% inhibitory concentration (IC50) was 453 nM. Further, on BRM, the IC50 stood at 32.3 nM and the “Ratio*” value is recorded as 14.01.
Turning to `CN(C)c1cnc2c(c1)CCCN2c1ccc2cnc(CNC(=O)c3ccc4c(c3)S(=O)(=O)CCOC4)cc2n1` [Compound 441], the half-maximal inhibitory concentration (IC50) at BRG-1 stood at 99.5 nM. Besides, at BRM, the IC50 was found to be 11.7 nM and the “Ratio*” value is given as 8.52.
`CN1CCN(c2ccc3cnc(CNC(=O)c4ccc5c(c4)S(=O)(=O)CCOC5)cc3n2)c2ncccc21` [Compound 442]: the IC50 on BRG-1 is 178 nM. At BRM, half-maximal inhibition (IC50) required 16.4 nM and the “Ratio*” value amounted to 10.89.
As to `C[C@H]1COCc2ccc(C(=O)NCc3cc4nc(-c5cccc(C6CC6)n5)cnc4cn3)cc2S1(=O)=O` [Compound 443], on BRG-1, the IC50 is 1270 nM. On BRM, the IC50 was 34.7 nM and the “Ratio*” value worked out at 36.53.
For `CO[C@H]1CCS(=O)(=O)c2cc(C(=O)NCc3cc4nc(-c5cccc(N6C[C@@H](C)O[C@@H](C)C6)n5)ccc4cn3)ccc2C1` [Compound 444], the IC50 on BRG-1 was found to be 27.5 nM; at BRM, 13 nM. The “Ratio*” value on BRM is recorded as 2.12.
Take `COCc1ccc2c(n1)N(c1ccc3cnc(CNC(=O)c4ccc5c(c4)S(=O)(=O)CCOC5)cc3n1)CCC2` [Compound 445]: the IC50 is 658 nM on BRG-1 and 20.4 nM at BRM. The “Ratio*” value on BRM came to 32.29.
The matching figures for `CO[C@@H]1CCS(=O)(=O)c2cc(C(=O)NCc3cc4nc(-c5cccc(N6C[C@@H](C)O[C@@H](C)C6)n5)ccc4cn3)ccc2C1` [Compound 446]: 31.7 nM, 11.2 nM and 2.83.
As for `COCc1cnc2c(c1)CCCN2c1ccc2cnc(CNC(=O)c3ccc4c(c3)S(=O)(=O)CCOC4)cc2n1` [Compound 447], the IC50 at BRG-1 came to 222 nM. Further, on BRM, the IC50 came out at 22.1 nM and the “Ratio*” value amounted to 10.05.
Regarding `CO[C@H](C)Cn1ccc2c(-c3ccc4cnc(CNC(=O)c5ccc6c(c5)S(=O)(=O)CCOC6)cc4n3)ccnc21` [Compound 448], on BRG-1, the IC50 amounted to 3670 nM. Also, at BRM, inhibition was half-maximal at 263 nM (IC50) and the “Ratio*” value came out at 13.96.
Consider `CO[C@@H](C)Cn1ccc2c(-c3ccc4cnc(CNC(=O)c5ccc6c(c5)S(=O)(=O)CCOC6)cc4n3)ccnc21` [Compound 449], for which the IC50 at BRG-1 was determined as 491 nM. For the same compound, on BRM, the IC50 was 34.9 nM and the “Ratio*” value is 14.08.
For the compound `O=C(NCc1cc2nc(-c3cncc(C4CC4)n3)ccc2cn1)c1cnc2c(c1)S(=O)(=O)CCCCC2` [Compound 450], the IC50 at BRG-1 was 183 nM. On BRM, the IC50 was 14.9 nM and the “Ratio*” value was 12.27.
As to `C[C@@H]1CN(c2cccc(-c3ccc4cnc(CNC(=O)c5cnc6c(c5)S(=O)(=O)CCCCC6)cc4n3)n2)C[C@H](C)O1` [Compound 451], the IC50 at BRG-1 was 8 nM. Further, at BRM, the IC50 worked out at 5 nM and the “Ratio*” value stood at 1.60.
With `C[C@H]1COCc2ncc(C(=O)NCc3cc4nc(-c5cccc(C6CC6)n5)ccc4cn3)cc2S1(=O)=O` [Compound 452], the results for the IC50 at BRG-1 and against BRM were 958 nM and 44 nM, respectively. At BRM, the “Ratio*” value stood at 21.77.
Consider `CCOc1cccc(-c2ccc3cnc(CNC(=O)c4cc(F)c5c(c4)S(=O)(=O)[C@@H](C)COC5)cc3n2)n1` [Compound 453], for which the IC50 on BRG-1 was 595 nM. Also, on BRM, inhibition was half-maximal at 27.4 nM (IC50) and the “Ratio*” value came out at 21.75.
As for `C[C@@H]1CN(c2cccc(-c3ccc4cnc(CNC(=O)c5ccc6c(c5)S(=O)(=O)CCO[C@@H]6C5CC5)cc4n3)n2)C[C@H](C)O1` [Compound 454], on BRG-1, the IC50 came out at 213 nM. For the same compound, on BRM, half-maximal inhibition (IC50) was put at 25.2 nM and the “Ratio*” value was determined as 8.46.
For `Cc1cc(C(=O)NCc2cc3nc(-c4cccc(N5C[C@@H](C)O[C@@H](C)C5)n4)ccc3cn2)cc2c1OCC[C@H](C)S2(=O)=O` [Compound 456] the same measures were 398 nM, 18.5 nM and 21.49.
Consider `Cc1cc(C(=O)NCc2cc3nc(-c4cccc(N5C[C@@H](C)O[C@@H](C)C5)n4)ccc3cn2)cc2c1COC[C@H](C)S2(=O)=O` [Compound 457], for which, at BRG-1, the IC50 is 48.3 nM. Also, on BRM, the IC50 came out at 5.9 nM and the “Ratio*” value was 8.14.
Turning to `C[C@H]1COCc2c(F)cc(C(=O)NCc3cc4nc(-c5cccc(C6CC6)n5)ccc4cn3)cc2S1(=O)=O` [Compound 458], on BRG-1, the IC50 is 654 nM. Besides, on BRM, the IC50 came out at 19.2 nM and the “Ratio*” value is 34.03.
Consider `CN(CCC(F)F)c1cccc(-c2ccc3cnc(CNC(=O)c4ccc5c(c4)S(=O)(=O)CCOC5)cc3n2)n1` [Compound 460], for which the IC50 on BRG-1 stood at 235 nM. Further, on BRM, the IC50 amounted to 24.2 nM and the “Ratio*” value is reported as 9.71.
As to `Cc1cc2c(nc1C)N(c1ccc3cnc(CNC(=O)c4ccc5c(c4)S(=O)(=O)CCOC5)cc3n1)CCC2` [Compound 463], at BRG-1, the IC50 amounted to 119 nM. For the same compound, on BRM, the IC50 was 7.8 nM and the “Ratio*” value is reported as 15.21.
`C[C@H]1COCc2ccc(C(=O)NCc3cc4nc(-c5ccnc([C@H]6CC6(F)F)n5)ccc4cn3)cc2S1(=O)=O` [Compound 464]: at BRG-1, the IC50 stood at 986 nM. Further, on BRM, half-maximal inhibition (IC50) was put at 36 nM and the “Ratio*” value is listed as 27.40.
For the compound `C[C@H]1COCc2ccc(C(=O)NCc3cc4nc(-c5ccnc([C@@H]6CC6(F)F)n5)ccc4cn3)cc2S1(=O)=O` [Compound 465], the IC50 on BRG-1 came out at 1560 nM; at BRM it was 102 nM. Further, at BRM, the “Ratio*” value amounted to 15.25.
`O=C(NCc1cc2nc(-c3ccc4c(n3)N3CCOCC3C4)ccc2cn1)c1ccc2c(c1)S(=O)(=O)CCOC2` (stereo not drawn) [Compound 466]: the IC50 on BRG-1 was 832 nM; against BRM, 122 nM. Moreover, the “Ratio*” value on BRM is 6.83.
`C[C@@H]1CCc2ccc(-c3ccc4cnc(CNC(=O)c5ccc6c(c5)S(=O)(=O)CCOC6)cc4n3)nc2N1C` [Compound 467]: the IC50 was 102 nM at BRG-1 and 23.6 nM on BRM. The “Ratio*” value at BRM is listed as 4.32.
For `C[C@H]1CCc2ccc(-c3ccc4cnc(CNC(=O)c5ccc6c(c5)S(=O)(=O)CCOC6)cc4n3)nc2N1C` [Compound 468], the IC50 on BRG-1 was determined as 191 nM. Besides, at BRM, the IC50 worked out at 24.9 nM and the “Ratio*” value was determined as 7.67.
Regarding `O=C(NCc1cc2nc(N3CCCCc4cccnc43)ccc2cn1)c1ccc2c(c1)S(=O)(=O)CCOC2` [Compound 469], the 50% inhibitory concentration (IC50) on BRG-1 stood at 4260 nM. Besides, on BRM, the IC50 is 2340 nM and the “Ratio*” value stood at 1.82.
Regarding `C[C@H](C1COC1)N(C)c1cccc(-c2ccc3cnc(CNC(=O)c4ccc5c(c4)S(=O)(=O)CCOC5)cc3n2)n1` [Compound 470], the half-inhibitory concentration (IC50) is 954 nM at BRG-1 and 74.8 nM at BRM. Moreover, the “Ratio*” value on BRM is 12.76.
For `C[C@@H](C1COC1)N(C)c1cccc(-c2ccc3cnc(CNC(=O)c4ccc5c(c4)S(=O)(=O)CCOC5)cc3n2)n1` [Compound 471] the same measures were 884 nM, 167 nM and 5.29.
For `O=C(NCc1cc2nc(-c3cccc(C45COCC4C5)n3)ccc2cn1)c1ccc2c(c1)S(=O)(=O)CCOC2` (stereo not drawn) [Compound 472] the same measures were 373 nM, 25 nM and 14.93.
For `O=C(NCc1cc2nc(N3CCCc4cc(C(F)F)cnc43)ccc2cn1)c1ccc2c(c1)S(=O)(=O)CCOC2` [Compound 473] the same measures were 147 nM, 10.9 nM and 13.46.
`C[C@@H]1CN(c2cccc(-c3ccc4cnc(CNC(=O)c5ccc(CC(C)(F)F)c(S(C)(=O)=O)c5)cc4n3)n2)C[C@H](C)O1` [Compound 474]: the IC50 on BRG-1 came to 4690 nM. For the same compound, on BRM, the IC50 was 230 nM and the “Ratio*” value stood at 20.44.
In the case of `C/C(F)=C/c1ccc(C(=O)NCc2cc3nc(-c4cccc(N5C[C@@H](C)O[C@@H](C)C5)n4)ccc3cn2)cc1S(C)(=O)=O` [Compound 475], the IC50 at BRG-1 was 1680 nM; at BRM, 215 nM. The “Ratio*” value at BRM is recorded as 7.79.
For the compound `COC[C@@H]1CCc2ccc(-c3ccc4cnc(CNC(=O)c5ccc6c(c5)S(=O)(=O)CCOC6)cc4n3)nc2N1C` [Compound 476], the half-maximal inhibitory concentration (IC50) at BRG-1 was found to be 36.6 nM. Moreover, at BRM, it took 3.7 nM to reach half-maximal inhibition (IC50) and the “Ratio*” value was 9.82.
For the compound `COC[C@H]1CCc2ccc(-c3ccc4cnc(CNC(=O)c5ccc6c(c5)S(=O)(=O)CCOC6)cc4n3)nc2N1C` [Compound 477], on BRG-1, the IC50 worked out at 293 nM. In addition, on BRM, it took 45.2 nM to reach half-maximal inhibition (IC50) and the “Ratio*” value amounted to 6.50.
`O=C(NCc1cc2nc(N3CCCc4c(Cl)ccnc43)ccc2cn1)c1ccc2c(c1)S(=O)(=O)CCOC2` [Compound 478]: the IC50 on BRG-1 turned out to be 250 nM; at BRM, 25.5 nM. Besides, on BRM, the “Ratio*” value came to 9.80.
With `CC(F)(F)CN1CCOc2c(-c3ccc4cnc(CNC(=O)c5ccc6c(c5)S(=O)(=O)CCOC6)cc4n3)cccc21` [Compound 479], the IC50 at BRG-1 is 189 nM; on BRM, 48.3 nM. Moreover, the “Ratio*” value on BRM is on record as 3.92.
With `CO[C@@H]1C[C@H]1N(C)c1cccc(-c2ccc3cnc(CNC(=O)c4ccc5c(c4)S(=O)(=O)CCOC5)cc3n2)n1` [Compound 480], on BRG-1, the IC50 was found to be 60.2 nM. At BRM, the IC50 was determined as 5.1 nM and the “Ratio*” value is 11.83.
For `O=C(NCc1cc2nc(N3CCOc4cc(C5CC5)ccc43)ccc2cn1)c1ccc2c(c1)S(=O)(=O)CCOC2` [Compound 481] the same measures were 113 nM, 13.2 nM and 8.58.
